The source of these data is article PMC4919643, “Intestinally-targeted TGR5 agonists equipped with quaternary ammonium have an improved hypoglycemic effect and reduced gallbladder filling effect” (Scientific Reports, 2016).

Values after ≈ are worked out from the molar mass of the structure shown.

For series [1], the system named is Caco-2 cells. Put plainly: Caco-2 permeability determination. Format: in vitro ADME. The method, then: (§1) Caco-2 permeability determination. Caco-2 permeability determination was carried out […]
(§2) Caco-2 cells were obtained from the ATCC (Cat#HTB-37) and maintained in Dulbecco’s modified Eagle’s Medium containing 10% fetal bovine serum, 1% glutamine, 1% nonessential amino acids, 100 μg/mL streptomycin, and 100 U/mL penicillin.
(§3) CO2 and 90% relative humidity environment. Caco-2 cells were passaged every 7 days at a ratio of 1:10. Cells were used between passages 30 and 40. After 21 days of culture, the integrity of the cell monolayer was verified by measuring the transepithelial electrical […]
(§4) Drug transport from the apical side to the basolateral side (A-B) and from the basolateral side to the apical side was measured simultaneously under the same condition.
(§5) Propranolol and atenolol were used as the […] control, respectively.
(§6) Digoxin was used as the positive control for Pgp-mediated drug efflux. In brief, the method was as follows. After washing the monolayer with HBSS three times, the compounds were diluted and added to the appropriate well (pH 6.8 for apical side and pH […]
(§7) 7.4 for basolateral side). […] Samples were […]
(§8) collected from the donor side at 5 and 95 min, and from the receiver side at 35 and 95 min post-incubation. The concentration of samples was measured by LC-MS/MS. The Papp was calculated from the following equation:
(§9) Papp = (VA/(SA×T))×([drug]acceptor/ [durg]initial donor )
(§10) Where VA is the volume of the acceptor well, SA is the surface area of the membrane, T is the total transport time, [drug]acceptor is the drug level at the acceptor side, and [drug]initial donor is the drug level at the donor side at T = 0. […]
In general terms: Caco-2 cells form a polarised layer with tight junctions and transporters.

Series [2] can be described thus: Solubility in water determined by LC-MS/MS. Format: physicochemical.
The test system of series [3] is ICR mice. Put plainly: Oral glucose tolerance test (OGTT) in ICR mice. Format: in vivo, mouse. As for the experimental part: Blood glucose levels were measured berefore and after glucose loading. *p < 0.05, **p < 0.01 vs. control. Error bar indicateds SEM (standard error of the mean). […]
Oral glucose tolerance test (OGTT) and gallbladder filling assay in ICR mice. 100 […]
(§11) mice (n = 7-8) 90 min prior to the oral glucose load (4 g/kg). Blood glucose levels were measured via blood drops obtained by clipping the tail of the mice using an Accu-Chek Advantage II Glucose Monitor (Roche, Indianapolis, IN, USA) before compound dosing and 0, 15, 30, 60, and 120 min after the glucose load. The area under the concentration−time curve from 0 to 120 min (AUC0−120 min, Glu) of blood glucose after the glucose load was calculated by the trapezoidal rule. […]

In series [4] the test system is ob/ob mice. Put plainly: Hypoglycemic effect of 3 in diabetic model ob/ob mice. Format: in vivo, mouse.
In series [5] the test system is ICR mice. The arrangement: method as in PMID 25710631. The following applies: normal mice (ICR mice); cited from earlier work.
Series [6] in a line: Caco-2 permeability determination. The following applies: human. It is filed as in vitro ADME. The method, then:
as §1, §2, §3, §4, §5, §6, §7, §8, §9, §10

Series [7] relates to ICR mice. Put plainly: Gallbladder filling assay in ICR mice. The following applies: once a day oral dose 50 mg/kg. It is filed as in vivo, mouse. The method, then: Figure 4 (A) Relative gallbladder area and (B) relative bile weight after once a day oral dose. After the OGTT experiment, mice were refed for 3 h, the gallbladder was removed and the area measured using a vernier caliper. The relative gallbladder area was calculated from the length multiplied by the width of the gallbladder. Bile weight was measured using analytical balances. *p < 0.05; **p < 0.01; ***p < 0.001. Error bar indicates SEM.
Caco-2 permeability determination. Caco-2 permeability determination was carried out according to (Eur. J. Med. Chem. 2014, 82, 1-15). […]
Drug transport from the apical side to the basolateral side (A-B) and from the basolateral side to the apical side was measured simultaneously under the same condition. […]
Digoxin was used as the positive control for Pgp-mediated drug efflux. […] The concentration of samples was measured by LC-MS/MS. The Papp was calculated from the following equation: […]
as §11

Series [8] is described as follows: In vitro microsomal stability assay (human). It is filed as in vitro ADME. The following applies: human liver microsomes. As for the experimental part: (§12) Acetonitrile (containing 0.1% formic acid; C (MeOH with 1% TFA). Flow rate: 0.6 […]
(§13) Data system: Masslynx 4.1 (Waters).
(§14) In vitro microsomal stability assay. The test compound was dissolved in DMSO and diluted to the desired concentration with DMSO and 0.1% aqueous BSA. Liver microsomes were incubated in a 96-well plate containing 0.1 M Tris buffer (pH 7.4), 0.33 mg/mL microsomal protein, 0.1 mM test compound, 5.0 mM MgCl2, 0.005% BSA, and 1.0 mM NADPH. Incubations were conducted at 37 °C. An aliquot was removed at each time point and the enzymatic reaction was stopped by protein precipitation in MeOH. The loss of the test compound was determined by LC-MS/MS. The intrinsic clearance (CLint, mL/min/g) was calculated from the following equation: […]
(§15) Where k (min-1) is the slope of the line of the natural log of the percentage parent remaining versus the time of incubation; P is the microsomal protein concentration
Background: Liver microsomes are vesicles of endoplasmic reticulum, rich in cytochrome P450 enzymes.

The nature of series [9]: In vitro microsomal stability assay (mice). Format: in vitro ADME. The following applies: mice liver microsomes. The method, then: as §12, §13, §14, §15
The target of series [10] is T1, human TGR5 (Homo sapiens, UniProt Q8TDU6).
T1 sequence (Q8TDU6 1-330): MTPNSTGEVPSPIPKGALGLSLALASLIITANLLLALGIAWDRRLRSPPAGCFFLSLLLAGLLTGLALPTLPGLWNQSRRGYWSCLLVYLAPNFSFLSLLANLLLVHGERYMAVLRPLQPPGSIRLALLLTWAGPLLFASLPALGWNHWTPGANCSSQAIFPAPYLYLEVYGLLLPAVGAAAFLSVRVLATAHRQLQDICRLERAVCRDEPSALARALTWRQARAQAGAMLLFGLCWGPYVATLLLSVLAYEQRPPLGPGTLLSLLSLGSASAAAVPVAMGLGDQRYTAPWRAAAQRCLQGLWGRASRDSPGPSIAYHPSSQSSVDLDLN
Put plainly: In vitro TGR5 reporter gene assay (hTGR5/CRE/HEK293). Background: In a reporter assay the amount or activity of a reporter protein is the signal.

For series [11], the target named is T2, mouse TGR5 (Mus musculus, UniProt Q80SS6).
T2 sequence (Q80SS6 1-329): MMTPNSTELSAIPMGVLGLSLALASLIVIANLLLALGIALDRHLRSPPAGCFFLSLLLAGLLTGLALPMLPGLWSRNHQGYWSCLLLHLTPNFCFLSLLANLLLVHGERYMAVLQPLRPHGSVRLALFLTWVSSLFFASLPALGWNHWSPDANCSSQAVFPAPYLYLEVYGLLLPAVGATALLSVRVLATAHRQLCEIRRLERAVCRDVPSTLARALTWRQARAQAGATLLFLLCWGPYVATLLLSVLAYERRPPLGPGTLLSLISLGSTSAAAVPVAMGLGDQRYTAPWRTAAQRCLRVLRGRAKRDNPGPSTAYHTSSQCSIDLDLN
Put plainly: In vitro TGR5 reporter gene assay (mTGR5/CRE/HEK293).

The nature of series [12]: Solubility as noted in the SAR discussion. It is filed as physicochemical. The following applies: compounds containing Br.
The mark [13] stands for this setting: Caco-2, apical to basolateral side.
The mark [14] stands for this setting: Caco-2, basolateral to apical side.

For the compound `O=C(c1cnccc1Oc1cc(Cl)ccc1Cl)N1CCN(C2CC2)c2ccccc21` [Compound 2, reference compound], in [1] (setting [13]), the “Papp A to B” value is on record as 6.75 10^−6 cm/s. Moreover, the “Papp B to A” value in series [1] (setting [14]) is 5.58 10^−6 cm/s. Also, in series [2], the solubility (in general, how much of the substance goes into solution per volume) was found to be 0.441 µg/mL (≈ 1 µM). The “AUC0–120 min of blood glucose, signed change vs control (OGTT, Fig. 3B)” value in series [3] (50 mg/kg p.o.) was -16%. In addition, the “decrease of blood glucose AUC vs control (OGTT)” value in series [3] (50 mg/kg p.o. 1.5 h before glucose 4 g/kg) is 16%.
For the compound `O=C(CCc1cc(Cl)c(Oc2ccncc2C(=O)N2CCN(C3CC3)c3ccccc32)cc1Cl)NCCOCCOCCOCCOCCOCCOCCOCCOCCNC(=O)CCc1cc(Cl)c(Oc2ccncc2C(=O)N2CCN(C3CC3)c3ccccc32)cc1Cl` [Compound 3], the hypoglycemic effect entry in series [4] is “no significant effect”. Moreover, the hypoglycemic efficacy entry in series [5] was “moderate”.
Regarding `O=C(c1sccc1Oc1cc(Cl)ccc1Cl)N1CCN(C2CC2)c2ccccc21` [Compound 9a], the melting point – broadly, the temperature, or range, at which the solid turns liquid – is 120 °C. In [6] (Caco-2), the efflux ratio (usually the permeability from basolateral to apical divided by that in the opposite direction, in the common usage) at 95 min was 0.8. Besides, the Papp A→B (as a rule, the apparent permeability from the apical to the basolateral side of a cell layer) at 95 min in series [6] (setting [13]) came out at 0.55 ×10⁻⁶ cm/s. Besides, the Papp B→A (usually how fast a substance crosses the layer from the basolateral side) at 95 min in series [6] (setting [14]) came to 0.43 ×10⁻⁶ cm/s. In addition, the “increase of gallbladder area vs control” value in [7] amounted to 210%. Besides, the “liver microsomal clearance (CLint)” value in series [8] was 1631 mL/min/g. For the same compound, the “liver microsomal clearance (CLint)” value in series [9] is given as 1390 mL/min/g. Moreover, the EC50 (in general, the concentration at which the effect is half-maximal) in series [10] came out at 0.55 nM. Besides, in series [11], the EC50 was found to be 2.8 nM.
`O=C(c1sccc1Oc1cc(Cl)ccc1Br)N1CCN(C2CC2)c2ccccc21` [Compound 9c] showed a melting point of 107 °C. For the same compound, in series [12], the “solubility (in words)” value is reported as “poor solubility”. The compound further registered an EC50 in series [10] of 0.58 ± 0.11 nM. In series [11], the EC50 was determined as 3 ± 0.69 nM.
`CN1CCN(C(=O)c2sccc2Oc2ccc(C(F)(F)F)cc2)c2ccccc21` [Compound 9h] gave a melting point of 88 °C. Moreover, it took 76 ± 9.8 nM to reach a half-maximal effect in series [10] (EC50).
